“And” between values parts separate entries of the source, which are not always exact repeats. Equal entries are not always repeated. Inconclusive results and toxic doses are left out. Cut-off read from the data, not from the text of the source: active = T/C of 150% or more; inactive = T/C below 125%.
Tested on: L1210 leukemia ip in BDF1 mice, survival T/C
Test: NCI In Vivo Anticancer Drug Screen. Data for tumor model L1210 Leukemia (intraperitoneal) in B6D2F1 (BDF1) mice
Details: endpoint: mean survival time, higher = longer survival
Procedure, shortened: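 Transplanted-tumor mice were given test agent; controls received vehicle only. Survival readings from the two groups were divided (treated over control).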

[1] = dose: 100.0 mg/kg/injection, schedule: Q04DX002 (ip), vehicle: saline with Tween-80
[2] = dose: 400.0 mg/kg/injection, schedule: Q04DX002 (ip), vehicle: saline with Tween-80
[3] = dose: 200.0 mg/kg/injection, schedule: Q04DX003 (ip), vehicle: saline with Tween-80
[4] = dose: 100.0 mg/kg/injection, schedule: Q01DX009 (ip), vehicle: Klucel (hydroxypropylcellulose) (HPC)
[5] = dose: 100.0 mg/kg/injection, schedule: Q01DX009 (ip), vehicle: saline with Tween-80
[6] = dose: 200.0 mg/kg/injection, schedule: Q01DX009 (ip), vehicle: saline with Tween-80
[7] = dose: 400.0 mg/kg/injection, schedule: Q01DX009 (ip), vehicle: saline with Tween-80
[8] = dose: 25.0 mg/kg/injection, schedule: Q01DX009 (ip), vehicle: Klucel (hydroxypropylcellulose) (HPC)
[9] = dose: 25.0 mg/kg/injection, schedule: Q01DX009 (ip), vehicle: saline with Tween-80
[10] = dose: 50.0 mg/kg/injection, schedule: Q01DX009 (ip), vehicle: saline with Tween-80
[11] = dose: 50.0 mg/kg/injection, schedule: Q01DX001 (ip), vehicle: carboxymethylcellulose (CMC)
[12] = dose: 100.0 mg/kg/injection, schedule: Q01DX001 (ip), vehicle: carboxymethylcellulose (CMC)
[13] = dose: 200.0 mg/kg/injection, schedule: Q01DX001 (ip), vehicle: carboxymethylcellulose (CMC)
[14] = dose: 400.0 mg/kg/injection, schedule: Q01DX001 (ip), vehicle: carboxymethylcellulose (CMC)
[15] = dose: 100.0 mg/kg/injection, schedule: Q01DX001 (ip), vehicle: saline
[16] = dose: 100.0 mg/kg/injection, schedule: Q04DX003 (ip), vehicle: Klucel (hydroxypropylcellulose) (HPC)
[17] = dose: 100.0 mg/kg/injection, schedule: Q04DX003 (ip), vehicle: saline
[18] = dose: 200.0 mg/kg/injection, schedule: Q01DX001 (ip), vehicle: saline
[19] = dose: 200.0 mg/kg/injection, schedule: Q04DX003 (ip), vehicle: Klucel (hydroxypropylcellulose) (HPC)
[20] = dose: 200.0 mg/kg/injection, schedule: Q04DX003 (ip), vehicle: saline
[21] = dose: 400.0 mg/kg/injection, schedule: Q01DX001 (ip), vehicle: saline
[22] = dose: 400.0 mg/kg/injection, schedule: Q04DX003 (ip), vehicle: Klucel (hydroxypropylcellulose) (HPC)
[23] = dose: 50.0 mg/kg/injection, schedule: Q01DX005 (ip), vehicle: saline
[24] = dose: 100.0 mg/kg/injection, schedule: Q01DX005 (ip), vehicle: saline

Measured: T/C

C=C(NC(=O)C(NC(=O)C(CCCCN)NC(=O)C1CSC(C)C2NC(=O)C(CC(C)C)NC(=O)C(NC(=O)C(CCC(N)=O)NC(=O)C(CC(C)C)NC(=O)C(Cc3ccccc3)NC(=O)C3CSC(C)C(NC(=O)C(NC(=O)C4CSC(C)C(NC(=O)C5CSCC(NC(=O)C(CCCCN)NC(=O)C(N)Cc6c[nH]c7ccccc67)C(=O)NC(CCC(=O)O)C(=O)NC(=C)C(=O)NC(CC(C)C)C(=O)N5)C(=O)N5CCCC5C(=O)NCC(=O)N4)C(C)C)C(=O)NCC(=O)NC(C)C(=O)NC(CC(C)C)C(=O)NC(CCC(N)=O)C(=O)N/C(=C/C)C(=O)N3)C(C)SCC(NC2=O)C(=O)NC(CC(N)=O)C(=O)N1)C(C)CC)C(=O)NC(CCCCN)C(=O)O (stereo not drawn)
inactive: [1] 108 % of control | dose: 200.0 mg/kg/injection, schedule: Q04DX002 (ip), vehicle: saline with Tween-80 94 % of control | [2] 92 % of control

Cc1cc([N+](=O)[O-])cc(Br)c1N
inactive: [3] 93 % of control | dose: 400.0 mg/kg/injection, schedule: Q04DX003 (ip), vehicle: saline with Tween-80 91 % of control

[I][Hg][I].c1ccc(P(N2CCCCC2)N2CCCCC2)cc1
inactive: [4] 102 % of control | dose: 200.0 mg/kg/injection, schedule: Q01DX009 (ip), vehicle: Klucel (hydroxypropylcellulose) (HPC) 97 % of control | dose: 400.0 mg/kg/injection, schedule: Q01DX009 (ip), vehicle: Klucel (hydroxypropylcellulose) (HPC) 97 % of control

O=S(=O)(Nc1ccc(NS(=O)(=O)c2ccccc2)c2ccccc12)c1ccccc1
inactive: [5] 87 % of control | [6] 92 % of control | [7] 92 % of control

C=C(Br)CNC(=O)C1CCCCC1
inactive: dose: 3.0 mg/kg/injection, schedule: Q04DX003 (ip), vehicle: Klucel (hydroxypropylcellulose) (HPC) 95 % of control | dose: 6.0 mg/kg/injection, schedule: Q04DX003 (ip), vehicle: Klucel (hydroxypropylcellulose) (HPC) 107 % of control | dose: 6.25 mg/kg/injection, schedule: Q01DX009 (ip), vehicle: Klucel (hydroxypropylcellulose) (HPC) 102 % of control | dose: 12.0 mg/kg/injection, schedule: Q04DX003 (ip), vehicle: Klucel (hydroxypropylcellulose) (HPC) 93 % of control | dose: 12.5 mg/kg/injection, schedule: Q01DX009 (ip), vehicle: Klucel (hydroxypropylcellulose) (HPC) 102 % of control | [8] 100 % of control

S=c1nccc[nH]1
inactive: [9] 103 % of control | dose: 25.0 mg/kg/injection, schedule: Q04DX002 (ip), vehicle: saline with Tween-80 93 % of control | [10] 105 % of control | dose: 50.0 mg/kg/injection, schedule: Q04DX002 (ip), vehicle: saline with Tween-80 107 % of control | [1] 96 % of control

COc1ccc(COC(=O)Nc2ccccc2)cc1
inactive: dose: 75.0 mg/kg/injection, schedule: Q01DX001 (ip), vehicle: carboxymethylcellulose (CMC) 101 % of control | dose: 150.0 mg/kg/injection, schedule: Q01DX001 (ip), vehicle: carboxymethylcellulose (CMC) 98 % of control

CC1=CC2C(C(C)C)CC1C1C(=O)OC(=O)C21 (stereo not drawn)
inactive: dose: 100.0 mg/kg/injection, schedule: Q04DX002 (ip), vehicle: Klucel (hydroxypropylcellulose) (HPC) 102 % of control | dose: 200.0 mg/kg/injection, schedule: Q04DX002 (ip), vehicle: Klucel (hydroxypropylcellulose) (HPC) 100 % of control

Cc1ccc(NC(=O)NCCCCl)cc1
inactive: [11] 98 % of control | [12] 110 % of control | [13] 98 % of control | [14] 106 % of control

O=C1CC2c3ccccc3C1C1C(=O)OC(=O)C21 (stereo not drawn)
inactive: [8] 94 % of control | dose: 50.0 mg/kg/injection, schedule: Q01DX009 (ip), vehicle: Klucel (hydroxypropylcellulose) (HPC) 105 % of control | [15] 102 % of control | [4] 112 % of control | dose: 100.0 mg/kg/injection, schedule: Q01DX009 (ip), vehicle: saline 96 % of control | [16] 107 % of control | [17] 100 % of control | [18] 98 % of control | [19] 100 % of control | [20] 91 % of control | [21] 93 % of control | [22] 109 % of control

Nc1nc(=O)n(C2OC(CO)C(O)C2O)c2scnc12 (stereo not drawn)
inactive: [23] 107 % of control | [24] 107 % of control

NC1CCc2ccccc2-c2ccccc21 (stereo not drawn)
inactive: dose: 10.0 mg/kg/injection, schedule: Q01DX001 (ip), vehicle: saline 101 % of control | dose: 20.0 mg/kg/injection, schedule: Q01DX001 (ip), vehicle: saline 108 % of control | dose: 40.0 mg/kg/injection, schedule: Q01DX001 (ip), vehicle: saline 101 % of control

O=C(OCc1ccc2c(c1)OCO2)C1CC1
inactive: [1] 103 % of control | [2] 101 % of control

C=C(Cl)c1c(C)cc(C)cc1C
inactive: [9] 98 % of control | [10] 104 % of control | [5] 98 % of control and 88 % of control | dose: 100.0 mg/kg/injection, schedule: Q04DX003 (ip), vehicle: saline with Tween-80 97 % of control | [3] 86 % of control

CC(C)(C)c1ccc(C(=O)O)cc1.[Cu+2]
inactive: dose: 2.5 mg/kg/injection, schedule: Q01DX009 (ip), vehicle: Klucel (hydroxypropylcellulose) (HPC) 109 % of control | dose: 5.0 mg/kg/injection, schedule: Q01DX009 (ip), vehicle: Klucel (hydroxypropylcellulose) (HPC) 101 % of control | dose: 10.0 mg/kg/injection, schedule: Q01DX009 (ip), vehicle: Klucel (hydroxypropylcellulose) (HPC) 106 % of control | dose: 20.0 mg/kg/injection, schedule: Q01DX009 (ip), vehicle: Klucel (hydroxypropylcellulose) (HPC) 101 % of control

O=C(CC(CC(=O)c1ccccc1)c1ccccc1)c1ccccc1
inactive: [11] 91 % of control | [12] 94 % of control | [13] 94 % of control | [14] 94 % of control

CN(CCO)C(=O)c1ccc([N+](=O)[O-])cc1
inactive: [16] 91 % of control | [19] 88 % of control | [22] 107 % of control

Cc1ccc2ccccc2c1NS(=O)(=O)c1ccccc1
inactive: dose: 100.0 mg/kg/injection, schedule: Q01DX001 (ip), vehicle: saline sonified 95 % of control | [5] 90 % of control | dose: 200.0 mg/kg/injection, schedule: Q01DX001 (ip), vehicle: saline sonified 95 % of control | [6] 90 % of control | dose: 400.0 mg/kg/injection, schedule: Q01DX001 (ip), vehicle: saline sonified 97 % of control | [7] 88 % of control

Fc1ccc2[nH]c3c(c2c1)CP(c1ccccc1)CC3 (stereo not drawn)
inactive: [16] 100 % of control | [19] 96 % of control | [22] 105 % of control

CC(=O)OCC1OC(Sc2nc3ncnc(N)c3[nH]2)C(OC(C)=O)C(OC(C)=O)C1OC(C)=O (stereo not drawn)
inactive: [15] 104 % of control | [18] 102 % of control | [21] 97 % of control

CCC1OC(=O)CC(O)C(C)C(OC2OC(C)CC(N(C)C)C2O)C(CC=O)CC(C)C(=O)/C=C/C2(C)OC2C1C (stereo not drawn)
inactive: dose: 75.0 mg/kg/injection, schedule: Q01DX009 (ip), vehicle: saline with Tween-80 93 % of control | dose: 150.0 mg/kg/injection, schedule: Q01DX009 (ip), vehicle: saline with Tween-80 102 % of control

O=C(O)C1C(C2c3ccc(O)cc3Oc3cc(O)ccc32)C2(Cl)C(Cl)=C(Cl)C1(Cl)C2(Cl)Cl (stereo not drawn)
inactive: [17] 100 % of control | [20] 93 % of control | dose: 400.0 mg/kg/injection, schedule: Q04DX003 (ip), vehicle: saline 94 % of control

COCC1OC(n2cc(C)c(=O)n(C)c2=O)CC1OC (stereo not drawn)
inactive: [23] 102 % of control | [24] 98 % of control | dose: 200.0 mg/kg/injection, schedule: Q01DX005 (ip), vehicle: saline 100 % of control

ClC12C3CCCC1CCCC2CCC3 (stereo not drawn)
inactive: dose: 100.0 mg/kg/injection, schedule: Q04DX003 (ip), vehicle: other 117 % of control | dose: 200.0 mg/kg/injection, schedule: Q04DX003 (ip), vehicle: other 104 % of control | dose: 400.0 mg/kg/injection, schedule: Q04DX003 (ip), vehicle: other 104 % of control

From PubChem BioAssay AID248 (DTP/NCI, 2004)
